{"source": "patent US20090298745A1", "about": "“Treatment of Diabetes with Glycogen Phosphorylase Inhibitors” (priority 2004, published 2009)", "tested_on": "Diabetic ZDF male rats", "experiment": "In vivo animal model to mimic human night time dosing", "design": "species or system rat", "conditions": "30 mg/kg po via gavage in 10% Gelucire 44/14; 360 min after dosing at 14 weeks old, from start of dosing (T=0); p=0.019 versus vehicle controls", "experimental": "Diabetic ZDF male rats (Charles River) were allowed free access to tap water and enriched pelleted chow diet (M-Z Ereich; Art. No. V1185-000; Ssniff R Spezialdiäten GmbH, D-59494, Soest Germany) ad-libitum for 4 weeks until they were 8 weeks old. The animals were housed under a 16 hr/8 hr:dark/light phase (lights on 09:00). As the animals progressed to the diabetic state, weekly blood glucose and insulin measurement were made at the end of the light period (17:00 h) and a blood glucose measurement made at the end of the active (dark) cycle (08:30-09:00 h). When the animals had reached 8 weeks of age, they were trained on a meal paradigm, by removal of food during the light period (09:00-17:00 h), which was maintained for the remainder of the study. After the animals had reached 12 weeks of age, and their diabetic status had been confirmed using the fasted glucose measurements (>8 mM), the animals were divided into groups. […] Blood glucose and insulin concentrations were measured by the glucose oxidase method (Super G Glucose analyzer; Dr. Müller Gerätebau, Freital, Germany) and Elisa technique, respectively, at T=−45 min, before dosing (08:15 h) and then at T=0 min ([…]), T=45 min (09:45 h), T=90 min (10:30 h), T=150 min (11:20 h) and T=360 min (15:00 h) after each weekly successive test compound dose.", "data": [{"smiles": "O=C(N[C@@H](Cc1ccc(F)cc1)C(=O)N1CCC(O)CC1)c1cc2cc(Cl)ncc2[nH]1", "note": "[Example 3, 5-chloro-1H-pyrrolo[2,3-c]pyridine-2-carboxylic acid [1-(S)-(4-fluorobenzyl)-2-(4-hydroxypiperidin-1-yl)-2-oxoethyl]amide]", "values": [{"measurement": "reduction in blood glucose concentration (mean+/−S.D.)", "result": "6.28 ± 2.47", "unit": "mM"}]}]}
